# Source: patent publication US20130165368A1, “ANTIMICROBIAL COMPOUNDS” (priority 2010, published 2013)
# Like-named read-outs stand apart in the source and are kept apart here.
# Legend:
# Assay type in all cases: cell-based
# [1] = tested on: Staphylococcus epidermidis; test: MIC agar dilution, micro-organism 14 (11047); conditions: Staphylococcus epidermidis 11047
# In short: (§1)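 Agar dilution in Isosensitest/CCEY agar with egg yolk and lysed horse blood; compounds as aqueous emulsions (myristyl and lauryl alcohol with 1-methyl-2-pyrrolidone and Tween 20). 1 µL spots of 1/15-diluted 0.5 McFarland suspensions, 37 °C aerobic, read at 22 and 48 h; MIC (mmol/L) is lowest concentration giving <10 colonies.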
# Escherichia coli = test: MIC agar dilution, micro-organism 1 (10418); conditions: Escherichia coli 10418
# In short: as §1
# Enterococcus faecium = test: MIC agar dilution, micro-organism 16 (7171); conditions: Enterococcus faecium 7171
# In short: as §1
# Providencia rettgeri = test: MIC agar dilution, micro-organism 3 (7475); conditions: Providencia rettgeri 7475
# In short: as §1
# Steptococcus pyogenes = test: MIC agar dilution, micro-organism 11 (8306); conditions: Steptococcus pyogenes 8306
# In short: as §1
# [2] = tested on: MRSA GER 1966/97 (Hanover IIIc); test: MIC agar dilution, MRSA strain 36; conditions: Staphylococcus aureus
# Method: (§2) Molar equivalent concentrations were used to allow comparison between compounds of differing molecular mass. Due to weighing difficulties, any compound in solid form was melted in a water bath prior to dilution. To make ten-times strength concentrations, which takes into account agar dilution, 0.0352 mmol of each compound was weighed into plastic universal bottles and 4 mL of sterile distilled water (SDW) was added. To produce a homogenous emulsion the universals were vortexed; once achieved the emulsions were serial diluted by adding 2 mL to 2 mL of SDW.
# (§3) For every 100 mL of Isosensitest agar (IST) (CM0471; Oxoid, Basingstoke, England), 3.1 g of the IST powder was added to 100 mL SDW (as per manufacturer's instructions) and sterilised for 15 minutes at 121° C. Once sterilised, the molten agar was cooled to 50° C. in a water-bath. Subsequently 4.8 g of CCEY powder (BC2160; Bioconnections, Wetherby, England), also known as Brazier's medium, was added to 100 mL SDW for every 100 mL of agar needed. This was then sterilised for 15 minutes at 121° C. Once sterilised the molten agar was cooled to 50° C. in a water-bath and 4 mL of egg-yolk emulsion (S2073; TCS Biosciences Ltd, Buckingham, United Kingdom) and 1 mL of lysed defibrinated horse blood (HB035; TCS Biosciences Ltd, Buckingham, United Kingdom) were also added for every 100 mL needed. Horse blood lysis is achieved by dilution to half concentration with SDW; when fully lysed the mixture will turn dark red in colour.
# (§4) 18 mL agar was added to each universal and then poured into sterile Petri dishes. This step creates a 1/10 dilution resulting in agar plates of the required strength. Control plates for each set of strains were created by adding 18 mL of agar to 2 mL of SDW.
# (§5) Suspensions of each bacterial species were prepared with a density equal to that of a 0.5 McFarland standard using a densitometer. All suspensions were made using sterile distilled water and fresh 18-20 hour cultures. As a 0.5 McFarland standard contains 1.5×10^8 CFU/mL and the multipoint inoculators applies 1 μL spots of liquid, each bacterial suspension was diluted 1/15 (20 μL suspension to 280 μL sterile distilled water).
# (§6) Bacterial suspensions were prepared from fresh 18-24 hour cultures as previously described. 1 μL of each strain was inoculated onto all 100 agar plates containing a different chemical concentration and the 2 control plates. This was done using a multipoint inoculator which inoculates 20 strains per plate. All plates were incubated for 22 hours at 37° C. in aerobic conditions.
# (§7) Each plate was examined for bacterial growth after 22 and 48 hours, with each being incubated in between examinations. A positive result was recorded as growth of ≧10 colonies. A negative result was recorded as growth of <10 colonies as this is equivalent to 99.9% inhibition. The lowest concentration of chemical that inhibited growth was recorded as the MIC. The results are recorded in Table IV below, where the numbers are quoted in mmol/L.
# (§8) Given the positive performance of the ethoxylates of lauryl alcohol in reducing the MIC for a number of the micro-organisms tested, further MIC testing of Laureth-1 [C12E1] through to Laureth-8 [C12E8] was conducted on each of the following: • 10 strains of vancomycin-resistant enterococci (VRE)—listed in Table V below; and • 20 strains of methicillin-resistant Staphylococcus aureus (MRSA)—listed in Table VI.
# (§9) The alkanol, alkanol derivatives, agar plates, and inocula were all prepared in the same way as described above.
# (§10) The plates were examined in the same manner as described above and the results are recorded in Table VII below, where the numbers are quoted in mmol/L.
# MRSA BEL 97597 = test: MIC agar dilution, MRSA strain 33; conditions: Staphylococcus aureus
# Method: as §2, §3, §4, §5, §6, §7, §8, §9, §10
# [3] = tested on: Enterococcus casseliflavus (VRE) Clin waste; test: MIC agar dilution, VRE strain 23
# Method: as §2, §3, §4, §5, §6, §7, §8, §9, §10
# [4] = tested on: Enterococcus faecium (VRE) NCTC 12952; test: MIC agar dilution, VRE strain 30
# Method: as §2, §3, §4, §5, §6, §7, §8, §9, §10
# MRSA FRA 95035 = test: MIC agar dilution, MRSA strain 37; conditions: Staphylococcus aureus
# Method: as §2, §3, §4, §5, §6, §7, §8, §9, §10
# MRSA FRA 920 = test: MIC agar dilution, MRSA strain 38; conditions: Staphylococcus aureus
# Method: as §2, §3, §4, §5, §6, §7, §8, §9, §10
# MRSA BEL 97598 = test: MIC agar dilution, MRSA strain 34; conditions: Staphylococcus aureus
# Method: as §2, §3, §4, §5, §6, §7, §8, §9, §10
# [5] = tested on: Enterococcus faecalis (VRE) PHLS URINE 2000; test: MIC agar dilution, VRE strain 21
# Method: as §2, §3, §4, §5, §6, §7, §8, §9, §10
"MIC ([1]; 22 hrs, read-out: MIC)","MIC ([1]; 48 hrs, read-out: MIC)","MIC (Escherichia coli; 22 hrs, read-out: MIC)","MIC (Escherichia coli; 48 hrs, read-out: MIC)","MIC (Enterococcus faecium; 22 hrs, read-out: MIC)","MIC (Enterococcus faecium; 48 hrs, read-out: MIC)","MIC (Providencia rettgeri; 22 hrs, read-out: MIC)","MIC (Providencia rettgeri; 48 hrs, read-out: MIC)","MIC (Steptococcus pyogenes; 22 h, 22 hrs, read-out: MIC)","MIC (Steptococcus pyogenes; 48 h, 48 hrs, read-out: MIC)",SMILES,MIC ([2]; 22 hrs),MIC ([2]; 48 hrs),MIC (MRSA BEL 97597; 22 hrs),MIC (MRSA BEL 97597; 48 hrs),MIC ([3]; 22 hrs),MIC ([3]; 48 hrs),MIC ([4]; 22 hrs),MIC ([4]; 48 hrs),MIC (MRSA FRA 95035; 22 hrs),MIC (MRSA FRA 95035; 48 hrs),also measured
> 880 µM,> 880 µM,> 880 µM,> 880 µM,> 880 µM,> 880 µM,110 µM,110 µM,220 µM,440 µM,"CCCCCCCCCCCCCCCCO [C0, 1-Hexadecanol, reference compound]",,,,,,,,,,,
,,,,,,,,,,"CCCCCCCCCCCCCOCCOCCOCCOCCOCCOCCO [C13E6, polyoxyethylene (6) tridecyl alcohol]",,,,,,,,,,,MIC ([1]; 22 hrs): 110 µM; MIC ([1]; 48 hrs): 110 µM; MIC (Escherichia coli; 22 hrs): >880 µM; MIC (Escherichia coli; 48 hrs): >880 µM; MIC (Enterococcus faecium; 22 hrs): >880 µM; MIC (Enterococcus faecium; 48 hrs): >880 µM; MIC (Providencia rettgeri; 22 hrs): >880 µM; MIC (Providencia rettgeri; 48 hrs): >880 µM; MIC (Steptococcus pyogenes; 22 hrs): 55 µM; MIC (Steptococcus pyogenes; 48 hrs): 55 µM
110 µM,110 µM,> 880 µM,> 880 µM,> 880 µM,> 880 µM,> 880 µM,> 880 µM,110 µM,110 µM,"CCCCCCCCCCCCOCCOCCO [L2, Diethylene Glycol Monododecyl Ether]",110 µM,110 µM,110 µM,110 µM,220 µM,220 µM,440 µM,440 µM,220 µM,220 µM,MIC (MRSA FRA 920; 22 hrs): 110 µM; MIC (MRSA FRA 920; 48 hrs): 110 µM; MIC (MRSA BEL 97598; 22 hrs): 110 µM; MIC (MRSA BEL 97598; 48 hrs): 220 µM; MIC ([5]; 22 hrs): 220 µM; MIC ([5]; 48 hrs): 220 µM

SMILES,"MIC ([1]; 22 hrs, read-out: MIC)","MIC ([1]; 48 hrs, read-out: MIC)","MIC (Escherichia coli; 22 hrs, read-out: MIC)","MIC (Escherichia coli; 48 hrs, read-out: MIC)","MIC (Enterococcus faecium; 22 hrs, read-out: MIC)","MIC (Enterococcus faecium; 48 hrs, read-out: MIC)","MIC (Providencia rettgeri; 22 hrs, read-out: MIC)","MIC (Providencia rettgeri; 48 hrs, read-out: MIC)","MIC (Steptococcus pyogenes; 22 h, 22 hrs, read-out: MIC)","MIC (Steptococcus pyogenes; 48 h, 48 hrs, read-out: MIC)",MIC ([2]; 22 hrs),MIC ([2]; 48 hrs),MIC (MRSA BEL 97597; 22 hrs),MIC (MRSA BEL 97597; 48 hrs),MIC ([3]; 22 hrs),MIC ([3]; 48 hrs),MIC ([4]; 22 hrs),MIC ([4]; 48 hrs),MIC (MRSA FRA 95035; 22 hrs),MIC (MRSA FRA 95035; 48 hrs),also measured
"CCCCCCCCCCCCOCCO [L1, Ethylene Glycol Monododecyl Ether]",220 µM,220 µM,220 µM,220 µM,> 880 µM,> 880 µM,> 880 µM,> 880 µM,220 µM,220 µM,220 µM,220 µM,220 µM,220 µM,220 µM,220 µM,220 µM,220 µM,220 µM,220 µM,MIC (MRSA FRA 920; 22 hrs): 220 µM; MIC (MRSA FRA 920; 48 hrs): 220 µM; MIC (MRSA BEL 97598; 22 hrs): 220 µM; MIC (MRSA BEL 97598; 48 hrs): 220 µM; MIC ([5]; 22 hrs): 220 µM; MIC ([5]; 48 hrs): 220 µM
